Where two headings read alike, the source gives them in different places.
Tests used:
[1] = test system: Ba/F3 cells expressing EGFR-del19; experiment: CellTiter-Glo cell viability assay, Ba/F3 EGFR-del19; format: cell-based; settings: Mus musculus
Protocol: (§1) Three-day cell viability assays were carried out by plating 2,000, 1,500 and 2,000 cells per well of Ba/F3, PC9 or MGH121, respectively, into black transparent-bottom 96-well plates. On the same day for Ba/F3 cells and the following day for PC9 and MGH121 cells, the cells were treated with each TKI across a 10-dose range from 0.3 nmol l^−1 to 10 μmol l^−1. After 72 h of drug treatment, cell viability was measured using the CellTiter-Glo assay (Promega).

[2] = test system: Ba/F3 cells expressing EGFR-T790M/del19; experiment: CellTiter-Glo cell viability assay, Ba/F3 EGFR-T790M/del19; format: cell-based; settings: Mus musculus
Protocol: as §1

[3] = test system: Ba/F3 cells expressing EGFR-L858R; experiment: CellTiter-Glo cell viability assay, Ba/F3 EGFR-L858R; format: cell-based; settings: read-out: IC50, Ba/F3 L858R
Protocol: as §1

PC9 parent cells (del19) = experiment: CellTiter-Glo cell viability assay, PC9 parent; format: cell-based; settings: read-out: IC50, PC9 parent
Protocol: as §1

[4] = test system: PC9 T790M cells (T790M/del19); experiment: CellTiter-Glo cell viability assay, PC9 T790M; format: cell-based; settings: read-out: IC50, PC9 T790M
Protocol: as §1

[5] = test system: PC9 triple-mutant cells (C797S/T790M/del19); experiment: CellTiter-Glo cell viability assay, PC9 triple mutant; format: cell-based; settings: read-out: IC50, PC9 triple
Protocol: as §1

[6] = test system: MGH121 parental cells (T790M/del19); experiment: cells; format: cell-based; settings: Homo sapiens, MGH121, 72 h, read-out: IC50, MGH121-pt
Protocol: as §1

[7] = test system: MGH121-res2 cells (C797S/T790M/del19); experiment: cells; format: cell-based; settings: Homo sapiens, MGH121, 72 h, read-out: IC50, MGH121-res2
Protocol: as §1

[8] = test system: Ba/F3 cells of EGFR-del19; experiment: Drug sensitivity screening at 100 nM, Ba/F3 EGFR-del19; format: cell-based; settings: Mus musculus, BaF3, 72 h, 100 nM inhibitor, 72 h, DMSO = 100; mean of three independent experiments (Fig. 1a data); read-out: Relative cell viability (ratio to DMSO control), del19
Protocol: (§2) After the incubation, cell viability was measured using CellTiter-Glo assay. The relative cell viability was calculated as a ratio of each value to that of the DMSO control.

[9] = test system: Ba/F3 cells of EGFR-T790M/del19; experiment: Drug sensitivity screening at 100 nM, Ba/F3 EGFR-T790M/del19; format: cell-based; settings: Mus musculus, BaF3, 72 h, 100 nM inhibitor, 72 h, DMSO = 100; mean of three independent experiments (Fig. 1a data); read-out: Relative cell viability (ratio to DMSO control), del19/T790M
Protocol: as §2

[10] = test system: Ba/F3 cells of EGFR-C797S/T790M/del19; experiment: Drug sensitivity screening at 100 nM, Ba/F3 EGFR-C797S/T790M/del19; format: cell-based; settings: Mus musculus
Protocol: as §2

[11] = test system: phosphorylation of EGFR in Ba/F3 cells expressing EGFR-C797S/T790M/del19; experiment: Western blotting of EGFR signalling, Ba/F3 triple-del19; format: cell-based; settings: 6 h
Protocol: (§3) Tumour tissues or cells grown under the specified conditions were washed with cold PBS before addition of the SDS lysis buffer (100 mM Tris, 1% SDS, 10% glycerol). Lysates were transferred to microtubes, boiled for 5 min at 100 °C and then vortexed. Protein quantification was performed using the BCA Protein Assay Reagent (Pierce) according to the manufacturer's protocol. Western blot analyses were conducted after separation by SDS-PAGE and transferred to polyvinylidene difluoride membranes.

[12] = test system: EGFR phosphorylation in PC9 triple-mutant cells; experiment: Western blotting of EGFR signalling, PC9 triple mutant; format: cell-based
Protocol: as §3

[13] = test system: A431, A549 and H460 cells; experiment: CellTiter-Glo cell viability assay, non-EGFR-mutated cell lines; format: cell-based; settings: A431 (EGFR amplification), A549 and H460 (KRAS mutation); 72 h
[14] = test system: PC9-T790M (T790M/del19) xenograft; experiment: PC9-T790M xenograft; format: in vivo, Balb-c nu/nu mice; settings: osimertinib 50 mg kg^−1, brigatinib 75 mg kg^−1
Protocol: (§4) Tumour growth was monitored twice weekly by bilateral caliper measurement, and tumour volume was calculated as 0.5 × length × width × width (mm^3). […] The mice whose implanted tumour size was ranked in the top 5% and bottom 5% were excluded from randomization to minimize the variation of tumour sizes. The mice were treated once daily by oral gavage for the indicated period. Relative tumour volume was calculated by dividing by the tumour volume on day 0. The body weights of the mice were measured twice weekly. Implanted tumours were resected from the mice on day 15 of drug treatment and were fixed with formalin. The mice were euthanized when the tumour size exceeded 700 mm^3 within several days. The investigators performing tumour measurements were not blinded to treatment groups. The sample size (minimum n=6 per treatment group) was selected to ensure satisfactory inter-animal reproducibility. The Mann–Whitney U test was used for the statistical analysis of the mice experiments.

[15] = test system: MGH121-res2 (C797S/T790M/del19) xenograft; experiment: MGH121-res2 xenograft; format: in vivo; settings: brigatinib 75 mg kg^−1 po; cetuximab 1 mg per mouse two times a week
Protocol: (a,b) MGH121-res2 expressing EGFR-C797S/T790M/del19 were subcutaneously implanted into SCID-beige mice. […] Tumour volume (V) was calculated as 0.5 × length × width^2, and the body weights (B.W.) of the mice were measured twice weekly. N=6. Results are expressed as mean±s.d.

[16] = test system: cell surface EGFR in PC9 triple-mutant cells; experiment: Flow cytometry of cell surface EGFR; format: cell-based; settings: 0, 6, 24 and 48 h
EGFR-C797S/T790M/L858R = EGFR-C797S/T790M/L858R (Homo sapiens, UniProt P00533, C797S/L858R/T790M); settings: inhibition curves shifted with ATP concentration, triple-mutant and wild-type EGFR
Protocol: The appropriate amount of target proteins calculated on the basis of the ADP-Glo assay manufacturer's protocol was incubated in 96-well half area white plates with serially diluted inhibitor over a 10-dose range from 0.0002, nM to 10 μM for 10 min at room temperature. ATP at concentration of 1, 10, 100 and 1,000 nM was mixed with 100 μg ml^−1 substrate and added to a kinase protein–inhibitor mixture, and then incubated for 60 min at room temperature. After the kinase reaction, an equal volume of ADP-Glo Reagent was added to terminate the kinase reaction, and the remaining ATP was depleted. The Kinase Detection Reagent was added both to convert ADP to ATP and to allow the newly synthesized ATP to be measured using the luciferase/luciferin reaction. The light generated was measured using a luminometer.

[17] = test system: PC9-triple mutant (C797S/T790M/del19) xenograft
Protocol: as §4

[18] = 180 mg per day, cited from earlier work
EGFR-mutated lung cancer = settings: patients with EGFR-mutated lung cancer, phase 1/2 trial; cited from earlier work

EGFR-C797S/T790M/L858R, sequence (P00533 712-979 T790M/C797S/L858R): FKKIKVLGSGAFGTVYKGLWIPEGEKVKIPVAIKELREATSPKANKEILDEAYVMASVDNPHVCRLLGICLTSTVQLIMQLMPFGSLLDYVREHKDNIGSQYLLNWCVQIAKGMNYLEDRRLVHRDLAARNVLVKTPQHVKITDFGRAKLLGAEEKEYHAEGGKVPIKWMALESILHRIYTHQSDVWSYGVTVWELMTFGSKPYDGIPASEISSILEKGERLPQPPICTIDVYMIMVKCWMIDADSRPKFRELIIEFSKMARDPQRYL

## COc1cc(N2CCC(N3CCN(C)CC3)CC2)ccc1Nc1ncc(Cl)c(Nc2ccccc2P(C)(C)=O)n1 [Brigatinib, brigatinib]
[1]; BaF3, 72 h, read-out: IC50, Ba/F3 Del19
  IC50: 43.7 nM
[1]; BaF3, read-out: IC50, Ba/F3 del19
  IC50: 39.4 nM
[2]; BaF3, 72 h, read-out: IC50, Ba/F3 T790M/del19
  IC50: 150 nM
[2]; BaF3, read-out: IC50, Ba/F3 T790M/del19
  IC50: 120 nM
[3]; Mus musculus, BaF3, 72 h
  IC50: 207 nM
[3]
  IC50: 133 nM
PC9 parent cells (del19)
  IC50: 133 nM
[4]
  IC50: 244 nM
[5]
  IC50: 599 nM
[6]
  IC50: 155 nM
[7]
  IC50: 592 nM
[8]
  viability at 0.1 µM: 10.3%
[9]
  viability at 0.1 µM: 69.2%
[10]; BaF3, 72 h, 100 nM inhibitor, 72 h, DMSO = 100, mean of three independent experiments (Fig. 1a data)
  viability at 0.1 µM: 59.2%
[10]; BaF3, at 100 nM, read-out: growth inhibition against EGFR-triple-del19
  inhibition at 0.1 µM: ~50%
[11]
  phosphorylation of EGFR and downstream signalling, Ba/F3 triple-del19: decreased phosphorylation of EGFR and its downstream signalling pathway in a dose-dependent manner
[12]
  EGFR phosphorylation and downstream signalling, PC9 triple-mutant cells: inhibited EGFR phosphorylation and its downstream signalling
[13]
  inhibitory activity (IC50) in cell lines without EGFR mutation: less inhibitory activity to the cell lines without EGFR mutation than afatinib and osimertinib
[14]
  tumour growth, T790M/del19-expressing PC9 xenograft: successfully suppressed the growth
[15]
  tumour growth, MGH121-res2 xenograft: growth inhibition effect
[16]
  cell surface EGFR level: no reduction
EGFR-C797S/T790M/L858R
  mode of EGFR kinase inhibition: competitively affected the ATP-binding site of the EGFR kinase domain
[17]; body weight, brigatinib 75 mg kg^−1 daily, with or without cetuximab
  toxicity, PC9 triple-mutant xenograft-bearing mice: without explicit toxicity
[17]; osimertinib 50 mg kg^−1, brigatinib 75 mg kg^−1 once daily oral, cetuximab 1 mg per mouse three times a week, panitumumab 0.5 mg per mouse two times a week
  tumour growth, PC9 triple-mutant xenograft: significant inhibition of the growth of PC9-triple mutant cells
[17]; western blotting of PC9-triple mutant tumours from mice
  phosphorylation of EGFR and downstream signalling in tumour samples: actually inhibited
[18]; ref 48
  plasma concentration in a steady state: 1,694.3 nM
[18]; ref 49
  plasma concentration in a steady state: 1,447 nM
EGFR-mutated lung cancer
  cases that achieved partial response: two of 42 cases
